Where a name gives a salt, the structure may show the parent alone. Read-outs that look alike come from different tables or passages of the source.
What was measured:
LNCaP WT = experiment: LNCaP Proliferation Assay, LNCaP WT; format: cell-based; conditions: Homo sapiens, 96 h, 1% CSS, 4 days, CellTiter-Glo, normalized to 0.1 nM R1881 stimulation
Description: LNCaP cells were expanded in RPMI 10% FBS in T150 flasks. The cells were dislodged with 0.25% Trypsin, washed in complete media, centrifuged (300 g, 3 min), and the supernatant aspirated. The cells were resuspended in RPMI phenol-red free media with 1% charcoal-stripped serum (CSS) and counted using a ViCELL (Beckman-Coulter). 7500 cells were added to each well of a white optical bottom 384-well plate and incubated for 2 days at 37° C. 5% CO2. Compound dilutions were prepared in RPMI CSS using 50 mM stock solutions and added to the cells either alone (agonist mode) or in combination with 0.1 nM R1881 (antagonist mode). The plates were incubated for 4 days, followed by addition of CellTiter-Glo Luminescent Cell Viability kit reagent (Promega). The plates were placed on a shaker at 3000 rpm for 10 minutes and then read on an EnVision plate reader (Perkin Elmer) using Luminescence assay default settings. The data was analyzed, normalized to 0.1 nM R1881 stimulation, and plotted in GraphPad Prism.

[1] = molecular target: T1, wild-type Androgen Receptor (AR-wt) (Homo sapiens, UniProt P10275); experiment: AR reporter assay, LNCaP-AR-wt ANT (antagonist mode); format: cell-based; conditions: for Emax: read-out: LNCaP-AR-wt ANT MAX % Inh
T1 construct: expressed in transfected cells; host or cells: LNCaP
T1 sequence (P10275 1-920): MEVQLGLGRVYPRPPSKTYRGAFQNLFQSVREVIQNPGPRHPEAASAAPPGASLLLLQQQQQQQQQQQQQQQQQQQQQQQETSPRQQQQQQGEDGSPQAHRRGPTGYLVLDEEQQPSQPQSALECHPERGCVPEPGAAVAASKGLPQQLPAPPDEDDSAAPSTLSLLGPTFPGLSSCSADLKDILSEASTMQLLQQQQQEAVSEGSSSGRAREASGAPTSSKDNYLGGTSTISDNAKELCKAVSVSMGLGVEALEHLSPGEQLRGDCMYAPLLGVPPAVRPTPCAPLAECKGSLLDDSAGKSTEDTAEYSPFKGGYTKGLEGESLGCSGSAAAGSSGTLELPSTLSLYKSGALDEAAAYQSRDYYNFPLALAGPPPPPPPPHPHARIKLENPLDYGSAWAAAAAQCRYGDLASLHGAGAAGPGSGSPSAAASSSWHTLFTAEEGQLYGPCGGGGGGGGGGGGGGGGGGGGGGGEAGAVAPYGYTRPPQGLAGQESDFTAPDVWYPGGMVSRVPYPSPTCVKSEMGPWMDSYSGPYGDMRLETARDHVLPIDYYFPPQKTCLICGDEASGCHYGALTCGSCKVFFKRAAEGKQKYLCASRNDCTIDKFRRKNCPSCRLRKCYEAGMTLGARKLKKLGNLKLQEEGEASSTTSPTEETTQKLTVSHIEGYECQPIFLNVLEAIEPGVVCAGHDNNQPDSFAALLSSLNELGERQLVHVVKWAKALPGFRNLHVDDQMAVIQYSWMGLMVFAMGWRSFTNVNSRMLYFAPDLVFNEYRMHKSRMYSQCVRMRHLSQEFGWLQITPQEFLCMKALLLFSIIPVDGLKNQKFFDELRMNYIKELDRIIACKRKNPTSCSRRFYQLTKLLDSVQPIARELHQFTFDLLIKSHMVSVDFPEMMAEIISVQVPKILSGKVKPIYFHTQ
Excerpt: LNCaP AR (cs) and LNCaP F876L luciferase cell lines were generated by transduction of each cell line (description of cell line generation Joseph J D, Lu N, Qian J, Sensintaffar J, Shao G, Brigham D, Moon M, Maneval E C, Chen I, Darimont B, Hager J H. A clinically relevant androgen receptor mutation confers resistance to second-generation antiandrogens enzalutamide and ARN-509. Cancer Discov 2013; 3:1020-1029) with an Androgen Response Element Firefly Luciferase lentiviral construct at an MOI (multiplicity of infection) of 50 following the manufacturer's instructions (Qiagen). A stable pooled-population cell line was generated using puromycin (Life Technologies) selection at 1:10,000 v/v. The protocol below was used for both cell lines and for testing of the compounds of Formula (I) of the present invention.
LNCaP cells were grown to about 80% confluence, media removed and cells rinsed in Hank's balanced salt solution prior to separation from the plate with 0.05% Trypsin EDTA. Cells were lifted and trypsin negated in complete CSS (charcoal stripped serum) culture media. CSS was maintained on cells for 24 h prior to assay, at which time 5,000 cells/[…] were seeded in Greiner 384 well White/White Tissue Culture Treated Plates and incubated for a further 1-2 hours at 37° C., 5% CO2, prior to addition of 10 μL of 4× Test Compounds (compounds described herein) or Assay Controls (all diluted in complete media containing 10% css). A further 10 μL of 4× R-1881 Agonist Challenge (antagonist assay) or Buffer (agonist assay) was then added (all diluted in complete media containing 10% css). Agonist challenge was at 400 pM for WT assay and 600 pM for F876L assay. Plates containing cells and compounds herein were incubated for a further 20-24 hours at 37° C., 5% CO2 before addition of 40 μL/well of Steady-Glo Luciferase Assay System Reagent (Promega#E2520). After 1 h, plates were read for luminescence on a BMG Pherastar.
Agonist challenge: R-1881 (Metribolone)—Agonist
Antagonist control (low control): 5-(5-(4-((1-Methylpiperidin-4-yl)oxy)phenyl)-8-oxo-6-thioxo-5,7-diazaspiro[3.4]octan-7-yl)-3-(trifluoromethyl)picolinonitrile (WO 2011/103202, EXAMPLE 19, Compound 129, CAS #1332390-06-3).
(1−(Sample RLU−Ave Low Control RLU[10 μM Antagonist Control])/(Ave High Control RLU [400 pM R-1881]−Ave Low Control RLU[10 μM Antagonist Control]))*100.
EC/IC50 calculations were achieved utilizing calculated RLU data and data fitting macros. Data were fit using least-squares methods to the following formula: […]
As used herein: • pIC50 is defined as −Log10(IC50 expressed in [Molar]). • pEC50 is defined as −Log10(EC50 expressed in [Molar]). • MAX % Inh is defined as the maximum % inhibition of R1881 control response observed for a compound over the tested concentration range. • MAX % Stim is defined as the maximum % stimulation (agonist response) observed for a compound over the tested concentration range. • LNCaP-AR-wt ANT refers to the reporter assay using LNCaP cells stably transfected with the Androgen Response Element Firefly Luciferase lentiviral construct and wild-type Androgen Receptor (AR-wt) in Antagonist mode. • LNCaP-AR-wt AG refers to the reporter assay using LNCaP cells stably transfected with the Androgen Response Element Firefly Luciferase lentiviral construct and wild-type Androgen Receptor (AR-wt) in Agonist mode. • LNCaP-AR-F876L ANT refers to the reporter assay using LNCaP cells stably transfected with the Androgen Response Element Firefly Luciferase lentiviral construct and F876L mutant Androgen Receptor (AR-F876L) in Antagonist mode. • LNCaP-AR-F876L AG refers to the reporter assay using LNCaP cells stably transfected with the Androgen Response Element Firefly Luciferase lentiviral construct and F876L mutant Androgen Receptor (AR-F876L) in Agonist mode.

[2] = antagonist mode, 400 pM R-1881 challenge, luciferase reporter, -Log10(IC50 in Molar), read-out: LNCaP-AR-wt ANT pIC50 (converted)

| Structure (SMILES) | IC50 (LNCaP WT) [µM] | IC50 [1] [nM] | Emax [1] [%] | IC50 [1, 2] [nM] |
| --- | --- | --- | --- | --- |
| CN1CCC(Oc2ccc(N3C(=S)N(c4ccc(C#N)c(Cl)c4)C(=O)C3(C)C)cn2)CC1 [Compound 10, 2-Chloro-4-(4,4-dimethyl-3-(6-((1-methylpiperidin-4-yl)oxy)pyridin-3-yl)-5-oxo-2-thioxoimidazolidin-1-yl)benzonitrile hydrochloride] | 0.46 | 63.1 | 102 | – |
| N#Cc1ccc(N2C(=O)C3(CCC3)N(c3ccc(OC4CCNCC4)nc3)C2=S)cc1C(F)(F)F [Compound 13, 4-(8-Oxo-5-(6-(piperidin-4-yloxy)pyridin-3-yl)-6-thioxo-5,7-diazaspiro[3.4]octan-7-yl)-2-(trifluoromethyl)benzonitrile hydrochloride] | 109 | 63.1 | 104 | – |
| CN1CCC(Oc2ccc(N3C(=S)N(c4ccc(C#N)c(C(F)(F)F)c4)C(=O)C34CCC4)cn2)CC1 [Compound 14, 4-(5-(6-((1-Methylpiperidin-4-yl)oxy)pyridin-3-yl)-8-oxo-6-thioxo-5,7-diazaspiro[3.4]octan-7-yl)-2-(trifluoromethyl)benzonitrile] | 2.44 | 89.1 | 104 | – |
| N#Cc1ccc(N2C(=O)C3(CCC3)N(c3cnc(OC4CCNCC4)nc3)C2=S)cc1C(F)(F)F [Compound 15, 4-(8-Oxo-5-(2-(piperidin-4-yloxy)pyrimidin-5-yl)-6-thioxo-5,7-diazaspiro[3.4]octan-7-yl)-2-(trifluoromethyl)benzonitrile] | 3.43 | – | 102 | 158 |
| Cc1cc(N2C(=O)C3(CCC3)N(c3ccc(OC4CCN(C)CC4)nc3)C2=S)ccc1C#N [Compound 18, 2-Methyl-4-(5-(6-((1-methylpiperidin-4-yl)oxy)pyridin-3-yl)-8-oxo-6-thioxo-5,7-diazaspiro[3.4]octan-7-yl)benzonitrile] | 1.53 | – | 99.4 | 36.3 |
| COc1cc(N2C(=O)C3(CCC3)N(c3ccc(OC4CCN(C)CC4)cc3)C2=S)ccc1C#N [Compound 19, 2-Methoxy-4-(5-(4-((1-methylpiperidin-4-yl)oxy)phenyl)-8-oxo-6-thioxo-5,7-diazaspiro[3.4]octan-7-yl)benzonitrile] | 27.4 | – | 105 | 141 |
| COc1cc(N2C(=O)C3(CCC3)N(c3ccc(OC4CCN(C)CC4)nc3)C2=S)ccc1C#N [Compound 20, 2-Methoxy-4-(5-(6-((1-methylpiperidin-4-yl)oxy)pyridin-3-yl)-8-oxo-6-thioxo-5,7-diazaspiro[3.4]octan-7-yl)benzonitrile] | 3.65 | – | 100 | 214 |
| N#Cc1ccc(N2C(=O)C3(CCC3)N(c3ccc(OC4CCNCC4)cc3)C2=S)cc1Cl [Compound 21, 2-Chloro-4-(8-oxo-5-(4-(piperidin-4-yloxy)phenyl)-6-thioxo-5,7-diazaspiro[3.4]octan-7-yl)benzonitrile] | 2.23 | – | 106 | 331 |
| CN1CCC(Oc2ccc(N3C(=S)N(c4ccc(C#N)c(Cl)c4)C(=O)C34CCC4)cc2)CC1 [Compound 22, 2-Chloro-4-(5-(4-((1-methylpiperidin-4-yl)oxy)phenyl)-8-oxo-6-thioxo-5,7-diazaspiro[3.4]octan-7-yl)benzonitrile] | 2.83 | 245 | 98.4 | – |
| N#Cc1ccc(N2C(=O)C3(CCC3)N(c3ccc(OC4CCNCC4)nc3)C2=S)cc1Cl [Compound 23, 2-Chloro-4-(8-oxo-5-(6-(piperidin-4-yloxy)pyridin-3-yl)-6-thioxo-5,7-diazaspiro[3.4]octan-7-yl)benzonitrile hydrochloride] | 3.19 | 67.6 | 105 | – |
